Data reported in publication PMC9505538, “P-Glycoprotein (MDR1/ABCB1) Restricts Brain Accumulation of the Novel EGFR Inhibitor EAI045 and Oral Elacridar Coadministration Enhances Its Brain Accumulation and Oral Exposure” (Pharmaceuticals, 2022).

Experiments:
[1] = mouse, in vivo
Experimental: A 4-h pilot experiment was performed in female wild-type (WT) and double-knockout Abcb1a/1b;Abcg2^-/- mice, with oral administration of 20 mg/kg EAI045. As shown in Supplemental Figure S2A,B, EAI045 was very rapidly absorbed in all strains, with an apparent tmax around 5 min.
We further measured the brain, liver, kidney, spleen, lung, and small intestine with content (SIWC) concentrations of EAI045 4 h after oral administration. Whereas at t = 4 h the plasma concentrations between the two strains were similar, the brain concentrations and brain-to-plasma ratios in Abcb1a/1b;Abcg2^-/- mice were dramatically higher than those in WT mice (25-fold and 12-fold, respectively, Supplemental Figure S3A,B). […] In contrast, the small intestine with content (SIWC) percentage of dose (SIWC%) and SIWC%-to-plasma ratio was reduced in Abcb1a/1b;Abcg2^-/- mice (Supplemental Figure S3K,L).
(§1) Mice (Mus musculus) were bred in the Netherlands Cancer Institute and housed and handled according to institutional guidelines complying with Dutch and EU legislation. Animals used were WT, Abcb1a/1b^-/- [39], Abcg2^-/- [40], Abcb1a/1b;Abcg2^-/- [41], Cyp3a^-/- [42], and Oatp1a/1b^-/- [43] mice of a >99% FVB/N strain background. Homozygous CYP3A4 humanized transgenic mice (Cyp3aXAV) were generated by cross-breeding of transgenic mice with stable human CYP3A4 expression in the liver or intestine, respectively, in a Cyp3a^-/- background. Proper functionality of the knockout and transgenic strains was monitored by regular testing with a variety of drug substrates. All the mice used were between 10 and 15 weeks of age. Animals were kept in a temperature-controlled environment with a 12 h light/12 h dark cycle and received a standard diet (Transbreed, SDS Diets, Technilab-BMI, The Netherlands) and acidified water ad libitum. Depending on the type of experiment, 5 or 6 mice were tested in each experimental group. All experimental animal protocols, including power calculations, were ethically assessed and designed under the nationally approved DEC/CCD project AVD301002016595 (approval date, 10 August 2016) and evaluated and approved by the institutional animal care and use committee (IACUC) of the Netherlands Cancer Institute.
EAI045 was dissolved in dimethyl sulfoxide (DMSO) at a concentration of 4 mg/mL, and then diluted with a mixture of polysorbate 80/ethanol (1:1, v/v), and further diluted with 5% (w/v) glucose in water to yield a concentration of 2 mg/mL. Final concentrations for DMSO, polysorbate 80, ethanol, and glucose in the dosing solution were 5%, 2.5%, 2.5%, and 4.5% (v/v/v/w), respectively. […]

[2] = mouse, in vivo; remark: listed apart in the source
Text: as §1
EAI045 was dissolved in dimethyl sulfoxide (DMSO) at a concentration of […], and then diluted with a mixture of polysorbate 80/ethanol (1:1, v/v), and further diluted with 5% (w/v) glucose in water to yield a concentration of 2 mg/mL. Final concentrations for DMSO, polysorbate 80, ethanol, and glucose in the dosing solution were 5%, 2.5%, 2.5%, and 4.5% (v/v/v/w), respectively. Elacridar hydrochloride was dissolved in DMSO at a concentration of 53 mg/mL, then diluted with a mixture of polysorbate 80, ethanol, and water [20:13:67, (v/v/v)] to yield a concentration of 5 mg/mL elacridar. The final oral dose of elacridar was 50 mg/kg body weight. All dosing solutions were prepared freshly on the day of experiment.
To minimize variation in absorption, mice were fasted for about 3 h before EAI045 was administered by gavage into the stomach (n = 5–6), using a blunt-ended needle. EAI045 was administered orally at dose of 20 mg/kg. Elacridar was administered orally at a dose of 50 mg/kg, 3 h prior to oral EAI045 administration. For the 24- or 4-h experiments, tail vein blood samplings were performed at 5 min, 30 min, 1, 2, 4, and 8 h, or 5 min, 15 min, 30 min, 1, and 2 h time points after oral administration of EAI045, respectively, using microvettes containing heparin. For the 30 min experiments, blood samplings were performed at 5, 10, and 20 min from the tail vein. At the last time point (24 h, 4 h, or 30 min), mice were anesthetized with isoflurane and blood was collected by cardiac puncture. Then, mice were sacrificed by cervical dislocation and brain, liver, spleen, kidneys, lung, small intestine with content (SIWC), and testis were rapidly removed and weighed. Tissues were homogenized on ice in appropriate volumes of 2% (w/v) BSA. Blood samples were centrifuged at 9000× g for 6 min at 4 °C immediately after collection. All samples were stored at −30 °C until analysis.

percentage of dose left in intestinal lumen (SIWC%) [1]: 1.7% | apparent tmax ([1]; po, 20 mg/kg): around 5 min | plasma exposure over 4 h (AUC0–4h) ([1]; po, 20 mg/kg): not meaningfully altered | brain-to-plasma ratio ([1]; po, 20 mg/kg, 4 h): 0.15 | kidney-to-plasma ratio, fold change [2]: 1.6 fold | systemic exposure of EAI045 ([2]; po, 20 mg/kg): not changed
SMILES: O=C(Nc1nccs1)C(c1cc(F)ccc1O)N1Cc2ccccc2C1=O (stereo not drawn) [EAI045]
